Results reported in patent publication US20240246964A1 (Arbutus Biopharma Corporation, priority 2021, published 2024).

Assays:
[1] = biological target: PD-L1 His protein / PD-1 Fc protein (Homo sapiens (Human), UniProt Q9NZQ7); assay: HTRF Assay (PD-1/PD-L1 interaction); type: binding; conditions: PD-L1 His 6 nM, PD-1 Fc 6 nM
[2] = biological target: human PD-L1 (Homo sapiens (Human), UniProt Q9NZQ7); assay: T cell activation luciferase reporter cell culture system (T Cell Activation Assay); type: cell-based; conditions: luciferase reporter assay; PD-L1 aAPC/CHO-K1 cells with PD-1 effector Jurkat T cells
Chain of human PD-L1 (Q9NZQ7 19-290): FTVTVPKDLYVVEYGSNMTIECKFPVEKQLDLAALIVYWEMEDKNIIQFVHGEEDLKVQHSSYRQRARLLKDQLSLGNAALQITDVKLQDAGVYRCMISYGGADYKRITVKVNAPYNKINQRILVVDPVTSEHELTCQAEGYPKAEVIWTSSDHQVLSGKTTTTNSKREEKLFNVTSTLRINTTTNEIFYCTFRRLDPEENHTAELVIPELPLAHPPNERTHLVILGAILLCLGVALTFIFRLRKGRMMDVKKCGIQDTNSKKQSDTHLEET

Chain of PD-L1 His protein / PD-1 Fc protein (Q9NZQ7 19-238): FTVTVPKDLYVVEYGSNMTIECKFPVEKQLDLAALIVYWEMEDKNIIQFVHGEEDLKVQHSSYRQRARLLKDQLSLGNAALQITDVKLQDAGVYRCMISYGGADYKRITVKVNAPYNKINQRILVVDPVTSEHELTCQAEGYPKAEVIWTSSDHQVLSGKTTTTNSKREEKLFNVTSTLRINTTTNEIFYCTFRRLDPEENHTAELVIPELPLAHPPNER

For `COc1cc(-c2nccc(-c3cccc(-c4ccc(CNC5CCOCC5)c(OC)n4)c3F)c2Cl)ccc1CNC1CCOCC1` [Example 440, N-((6-(3-(3-Chloro-2-(3-methoxy-4-(((tetrahydro-2H-pyran-4-yl)amino)-methyl)phenyl)pyridin-4-yl)-2-fluorophenyl)-2-methoxypyridin-3-yl)methyl)tetrahydro-2H-pyran-4-amine], the IC50 [1] was 9.97 nM and the EC50 [2] was 214 nM.

Work on `COc1nc(-c2cccc(-c3ccnc(-c4ccc(CNC5CCN(C(C)=O)CC5)c(OC(F)F)c4)c3Cl)c2Cl)ccc1CN1CC2(CNC(=O)C2)C1` [Example 665, 2-((6-(3-(2-(4-(((1-Acetylpiperidin-4-yl)amino)methyl)-3-(difluoromethoxy)phenyl)-3-chloropyridin-4-yl)-2-chlorophenyl)-2-methoxypyridin-3-yl)methyl)-2,6-diazaspiro[3.4]octan-7-one] yielded an IC50 [1] of 0.6 nM and an EC50 [2] of 46.3 nM.

Work on `COc1nc(-c2cccc(-c3ccnc(-c4cc(OC)c5nc(CN[C@H]6C[C@](C)(O)C6)cn5c4)c3Cl)c2Cl)ccc1CNC[C@@H]1CCC(=O)N1` [Example 312, (S)-5-((((6-(2-chloro-3-(3-chloro-2-(2-((((1r,3r)-3-hydroxy-3-methylcyclobutyl)amino)methyl)-8-methoxyimidazo[1,2-a]pyridin-6-yl)pyridin-4-yl)phenyl)-2-methoxypyridin-3-yl)methyl)amino)methyl)pyrrolidin-2-one] yielded an IC50 [1] of 0.813 nM and an EC50 [2] of 178 nM.

Work on `COc1cc(-c2nccc(-c3cccc(-c4ccc(CN5CC6(CNC(=O)C6)C5)c(OC)n4)c3Cl)c2Cl)cnc1CNC1CCOCC1` [Compound 548, 2-((6-(2-Chloro-3-(3-chloro-5′-methoxy-6′-(((tetrahydro-2H-pyran-4-yl)amino)methyl)-[2,3′-bipyridin]-4-yl)phenyl)-2-methoxypyridin-3-yl)methyl)-2,6-diazaspiro[3.4]octan-7-one] yielded an IC50 [1] of 1.13 nM and an EC50 [2] of 75.9 nM.

`CNCc1ccc(-c2cccc(-c3ccnc(-c4ccc(CNC[C@@H](O)CC(=O)OC(C)C)c(OC)c4)c3Cl)c2Cl)nc1OC` [Example 280, Isopropyl (S)-4-((4-(3-chloro-4-(2-chloro-3-(6-methoxy-5-((methylamino)methyl)pyridin-2-yl)phenyl)pyridin-2-yl)-2-methoxybenzyl)amino)-3-hydroxybutanoate] gave an IC50 [1] of 28.7 nM and an EC50 [2] of 111 nM.

`COCC(=O)N1CCC(NCc2ccc(-c3nccc(-c4cccc(-c5ccc(CNC6CCN(C(=O)COC)CC6)c(OC)n5)c4Cl)c3Cl)cc2OC)CC1` [Example 397, 1-(4-(((6-(2-Chloro-3-(3-chloro-2-(3-methoxy-4-(((1-(2-methoxyacetyl)piperidin-4-yl)amino)methyl)phenyl)pyridin-4-yl)phenyl)-2-methoxypyridin-3-yl)methyl)amino)piperidin-1-yl)-2-methoxyethan-1-one] was tested, and the IC50 [1] was 0.128 nM and the EC50 [2] was 5.71 nM.

For `COc1cc(-c2nccc(-c3cccc(-c4ccc(CNC[C@H](C)O)c(OC)n4)c3Cl)c2Cl)cc2c1CN(CCC(=O)O)CC2` [Example 293, (S)-3-(6-(3-Chloro-4-(2-chloro-3-(5-(((2-hydroxypropyl)amino)methyl)-6-methoxypyridin-2-yl)phenyl)pyridin-2-yl)-8-methoxy-3,4-dihydroisoquinolin-2(1H)-yl)propanoic acid], the IC50 [1] was 0.27 nM and the EC50 [2] was 60.5 nM.

`COc1cc(-c2nccc(-c3cccc(NC(=O)c4ccc(CNCCO)cn4)c3Cl)c2Cl)ccc1CN1CC2(C1)CN(C(C)=O)C2` [Example 757, N-(3-(2-(4-((6-Acetyl-2,6-diazaspiro[3.3]heptan-2-yl)methyl)-3-methoxyphenyl)-3-chloropyridin-4-yl)-2-chlorophenyl)-5-(((2-hydroxyethyl)amino)methyl)picolinamide] gave an IC50 [1] of 0.47 nM and an EC50 [2] of 86.5 nM.

With `CNCc1ccc(-c2cccc(-c3ccnc(-c4cc(CNCCC(=O)O)cc(OC)c4)c3Cl)c2Cl)nc1OC` [Compound 170, 3-((3-(3-chloro-4-(2-chloro-3-(6-methoxy-5-((methylamino)methyl)pyridine-2-yl)phenyl)pyridine-2-yl)-5-methoxybenzyl)amino)propanoic acid] the IC50 [1] was 0.73 nM and the EC50 [2] was 415 nM.
